Measured values from paper PMC12157126, “Saturation kinetics and specificity of transporters for L-arginine and asymmetric dimethylarginine (ADMA) at the blood-brain and blood-CSF barriers” (PLOS One, 2025).
Where “and” joins values, the source holds several entries; their conditions need not be identical. Identical values can stand only once. Like-named read-outs stand apart in the source and are kept apart here.

Experiments:
[1] = system: blood-brain and blood-CSF barriers; test: In situ brain/choroid plexus perfusion with capillary depletion: CNS uptake of [3H]-arginine in absence and presence of transporter inhibitors; format: in vivo, adult male BALB/c mice; details: 4 mM BCH or 500 μM α-methyl-D,L-tryptophan
Protocol: (§1) The in situ brain/choroid plexus perfusion method was performed as previously described and will only be briefly detailed here. […] At the end of the perfusion period a CSF sample was taken from the cisterna magna, the animal was decapitated, the brain removed and samples taken under a Leica S4E L2 stereomicroscope (Leica; Buckinghamshire, UK). […] The circumventricular organs (CVOs) including the choroid plexus, pituitary gland and pineal gland were also sampled. Brain samples were also taken for capillary depletion analysis.
(§2) Both the physiological capillary depletion buffer and dextran solution were maintained at 4 °C to halt any cell metabolism and transport processes, and to reduce any cellular or protein damage due to heat generated from the homogenisation process. The whole brain homogenate was then taken for dextran density centrifugation (5,400 x g) and 4 °C to produce an endothelial cell-enriched pellet and supernatant containing brain parenchyma.
(§3) The transporter proteins these inhibitors target are listed in S1 Table in S1 File.
(§4) % change=RTissue−RInhibition /RTissue× 100 (2)

[2] = system: blood-brain and blood-CSF barriers; test: In situ brain/choroid plexus perfusion with capillary depletion: CNS uptake of [3H]-ADMA in absence and presence of transporter inhibitors; details: for % inhibition of [3H]-ADMA uptake: L-homoarginine 20 mM, BCH 4 mM, L-phenylalanine 200 μM, L-leucine 5 mM, harmaline 2 mM; for RBrain, [3H]-ADMA alone: 10 min perfusion, mean±SEM; for RBrain, [3H]-ADMA alone / uptake of [3H]-ADMA: [14C]-sucrose corrected; for uptake of [3H]-ADMA: S14 Fig
Protocol: as §1, §2, §3, §4

[3] = system: blood-brain and blood-CSF barriers; test: Self-inhibition experiments: [3H]-ADMA uptake with 0.5-500 μM unlabelled ADMA and kinetic constants (Km, Vmax, Kd); format: in vivo, adult male BALB/c mice; details: for Km: read-out: Km (half-saturation constant) of [3H]-ADMA influx
Source text: At the end of the perfusion period a CSF sample was taken from the cisterna magna, the animal was decapitated, the brain removed and samples taken under a Leica S4E L2 stereomicroscope (Leica; Buckinghamshire, UK). The samples included the frontal cortex, caudate nucleus, occipital cortex, hippocampus, hypothalamus, thalamus, pons and cerebellum. The circumventricular organs (CVOs) including the choroid plexus, pituitary gland and pineal gland were also sampled. Brain samples were also taken for capillary depletion analysis.
A series of single-time point experiments involved varying the unlabelled concentration of ADMA in the artificial plasma and measuring the [^3H]-ADMA uptake into the brain regions, capillary depletion samples, CVOs and CSF after 10 min of perfusion. […] This enabled calculation of the kinetic constants; Vmax (the maximal influx rate of the saturable component), Km (the half-saturation constant) and Kd (the constant of non-saturable diffusion).
In the case where the uptake of the radiolabelled test amino acid is examined in the presence of various unlabelled concentrations of the same test solute, Kin, can be defined as in equation 4:
Kin= Vmax/Km+ Cpl+ Kd (5)
Unidirectional ADMA flux (Jin) into the brain (nmol.min^-1.g^-1) and CSF (nmol.min^-1.ml^-1) was determined using equations 6 and 7:
Jin=VmaxCpl/Km+ Cpl+ KdCpl (8)
This constant of non-saturable diffusion was then used to calculate a non-saturable flux which could be subtracted from the total flux to determine the saturable flux. […] In some cases, there was no measurable non-saturable component and so estimates of Vmax and Km were obtained from plots of total flux, which was equal to the saturable flux.

[4] = brain homogenate or supernatant

## NC1(C(=O)O)CC2CCC1C2 (stereo not drawn) [BCH, 2-amino-endo-bicyclo[2.2.1]heptane-2-carboxylic acid, reference compound]
[1]; CSF, choroid plexus and pituitary gland
  effect on [3H]-arginine distribution: no statistically significant effect
[1]; homogenate, supernatant, pellet
  effect on [3H]-arginine distribution: no significant effect
[1]; majority of brain regions sampled
  effect on [3H]-arginine uptake: did not significantly affect
[2]; brain and choroid plexus (up to), system B0,+ inhibitors
  inhibition of [3H]-ADMA uptake: up to 50.0%
[2]; [4]
  effect on [3H]-ADMA uptake: did not significantly affect
[2]; caudate nucleus, α-methyl-D,L-tryptophan 500 μM
  % inhibition of [3H]-ADMA uptake: 37.5%
[2]; choroid plexus
  % inhibition of [3H]-ADMA uptake: 50.0%
[2]; hippocampus, α-methyl-D,L-tryptophan 500 μM
  % inhibition of [3H]-ADMA uptake: 36.6%
[2]; hypothalamus, α-methyl-D,L-tryptophan 500 μM
  % inhibition of [3H]-ADMA uptake: 36.8%
[2]; occipital cortex, α-methyl-D,L-tryptophan 500 μM
  % inhibition of [3H]-ADMA uptake: 34.2%
[2]; pineal gland, α-methyl-D,L-tryptophan 500 μM
  % inhibition of [3H]-ADMA uptake: 65.6%
[2]; pituitary gland
  % inhibition of [3H]-ADMA uptake: 61.5%

## COc1ccc2c3c([nH]c2c1)C(C)=NCC3 [Harmaline, harmaline, reference compound]
[2]; brain and choroid plexus
  effect on [3H]-ADMA uptake: significantly inhibited
[2]; [4]
  effect on [3H]-ADMA uptake: did not significantly affect

## N[C@@H](Cc1ccccc1)C(=O)O [L-phenylalanine, reference compound]
[2]; phenylalanine, some regions of the brain and the choroid plexus (up to)
  inhibition of [3H]-ADMA uptake: up to 66.4%

## CN(C)C(N)=NCCC[C@H](N)C(=O)O [[^3H]-ADMA, asymmetric dimethylarginine]
[2]; 10 minutes
  uptake into pellet, times lower than into choroid plexus: 124.2 times
[2]; CSF
  RBrain, [3H]-ADMA alone: 26.72±8.84 ml.100g^-1
[2]; caudate nucleus
  RBrain, [3H]-ADMA alone: 24.07±2.92 ml.100g^-1
[2]; cerebellum
  RBrain, [3H]-ADMA alone: 17.65±1.52 (n=4) ml.100g^-1
[2]; choroid plexus
  RBrain, [3H]-ADMA alone: 260.9±42.45 ml.100g^-1
[2]; choroid plexus, 10 minutes
  uptake of [3H]-ADMA: 260.85 ± 42.45 ml.100g^-1
[2]; frontal cortex
  RBrain, [3H]-ADMA alone: 24.94±3.50 ml.100g^-1
[2]; frontal cortex, 10 minutes
  uptake of [3H]-ADMA: 24.94 ± 3.50 ml.100g^-1
[2]; hippocampus
  RBrain, [3H]-ADMA alone: 21.74±1.75 ml.100g^-1
[2]; homogenate (capillary depletion)
  RBrain, [3H]-ADMA alone: 17.70±3.10 (n=4) ml.100g^-1
[2]; hypothalamus
  RBrain, [3H]-ADMA alone: 30.42 ± 2.98 ml.100g^-1
[2]; occipital cortex
  RBrain, [3H]-ADMA alone: 22.52±1.65 ml.100g^-1
[2]; pellet (capillary depletion)
  RBrain, [3H]-ADMA alone: 2.62±0.88 (n=4) ml.100g^-1
[2]; pineal gland
  RBrain, [3H]-ADMA alone: 194.1±48.46 ml.100g^-1
[2]; pituitary gland
  RBrain, [3H]-ADMA alone: 182.9±32.28 ml.100g^-1
[2]; pons
  RBrain, [3H]-ADMA alone: 24.64±3.44 ml.100g^-1
[2]; supernatant (capillary depletion)
  RBrain, [3H]-ADMA alone: 10.03 ± 1.06 (n=4) ml.100g^-1
[2]; thalamus
  RBrain, [3H]-ADMA alone: 21.09±1.74 ml.100g^-1
[3]; CSF
  non-saturable component of [3H]-ADMA flux: no non-saturable component
[3]; CSF, from total flux
  Vmax (maximal influx rate of the saturable component) of [3H]-ADMA: 2.07 ± 0.38 nmol/min/g and 2.067 ± 0.38 nmol/min/g
  Km: 30.6 ± 25.4 µM
[3]; caudate nucleus
  Kd (constant of non-saturable diffusion) of [3H]-ADMA: 2.82 µL/min/g
  Vmax (maximal influx rate of the saturable component) of [3H]-ADMA: 0.423 ± 0.061 nmol/min/g
[3]; caudate nucleus, saturable flux, sucrose space increased at 500 µM ADMA
  Km: 25.2 ± 16.6 µM
[3]; cerebellum
  Kd (constant of non-saturable diffusion) of [3H]-ADMA: 5.20 µL/min/g
  Vmax (maximal influx rate of the saturable component) of [3H]-ADMA: 0.235 ± 0.011 nmol/min/g
[3]; cerebellum, saturable flux, sucrose space increased at 500 µM ADMA
  Km: 24.7 ± 5.32 µM
[3]; choroid plexuses, pituitary gland and pineal gland, 10 minutes
  RTissue: > 100%
[3]; frontal cortex
  Vmax (maximal influx rate of the saturable component) of [3H]-ADMA: 0.307 ± 0.017 nmol/min/g
[3]; frontal cortex, saturable flux
  Km: 29.1 ± 7.19 µM
[3]; frontal cortex, slope of total flux at 100 and 500 μM
  Kd (constant of non-saturable diffusion) of [3H]-ADMA: 4.40 µL/min/g
[3]; hippocampus
  Kd (constant of non-saturable diffusion) of [3H]-ADMA: 3.23 µL/min/g
  Vmax (maximal influx rate of the saturable component) of [3H]-ADMA: 0.24 ± 0.02 nmol/min/g
[3]; hippocampus, saturable flux, sucrose space increased at 500 µM ADMA
  Km: 15.8 ± 6.86 µM
[3]; homogenate
  Kd (constant of non-saturable diffusion) of [3H]-ADMA: 3.34 µL/min/g
  Vmax (maximal influx rate of the saturable component) of [3H]-ADMA: 0.155 ± 0.013 nmol/min/g
[3]; homogenate, saturable flux
  Km: 13.6 ± 5.26 µM
[3]; hypothalamus
  Kd (constant of non-saturable diffusion) of [3H]-ADMA: 5.18 µL/min/g
  Vmax (maximal influx rate of the saturable component) of [3H]-ADMA: 0.482 ± 0.049 nmol/min/g
[3]; hypothalamus, saturable flux
  Km: 23.2 ± 10.8 µM
[3]; occipital cortex
  Kd (constant of non-saturable diffusion) of [3H]-ADMA: 4.65 µL/min/g
  Vmax (maximal influx rate of the saturable component) of [3H]-ADMA: 0.321 ± 0.034 nmol/min/g
[3]; occipital cortex, saturable flux, sucrose space increased at 500 µM ADMA
  Km: 25.9 ± 12.6 µM
[3]; pellet
  Kd (constant of non-saturable diffusion) of [3H]-ADMA: 0.38 µL/min/g
  Vmax (maximal influx rate of the saturable component) of [3H]-ADMA: 0.071 ± 0.008 nmol/min/g
[3]; pellet, saturable flux
  Km: 34 ± 16.8 µM
[3]; pons
  Kd (constant of non-saturable diffusion) of [3H]-ADMA: 3.62 µL/min/g
  Vmax (maximal influx rate of the saturable component) of [3H]-ADMA: 0.325 ± 0.043 nmol/min/g
[3]; pons, saturable flux, sucrose space increased at 500 µM ADMA
  Km: 18.2 ± 10.8 µM
[3]; supernatant
  Kd (constant of non-saturable diffusion) of [3H]-ADMA: 2.35 µL/min/g
  Vmax (maximal influx rate of the saturable component) of [3H]-ADMA: 0.208 ± 0.036 nmol/min/g
[3]; supernatant, saturable flux
  Km: 68.5 ± 44.4 µM
[3]; thalamus
  Kd (constant of non-saturable diffusion) of [3H]-ADMA: 4.33 µL/min/g
  Vmax (maximal influx rate of the saturable component) of [3H]-ADMA: 0.278 ± 0.033 nmol/min/g
[3]; thalamus, saturable flux, sucrose space increased at 500 µM ADMA
  Km: 18.5 ± 9.89 µM
